Data as given in PubChem BioAssay AID1963448 (Molecular Pharmacology Branch, DTP, NCI, 2024).

System: 616215-338-R-J1-PDC complex spheroid growth, % test/control
Assay: Anticancer human tumor 616215-338-R-J1-PDC patient-derived colon adenocarcinoma cell line growth inhibition [Asc]
Settings: for IC50: curve of first compound; for viability, T/C: stronger effect = lower value
Protocol: Multicellular complex tumor spheroid response to apoptosis pathway targeting inhibitors Alrizomadlin, Pelcitoclax, and Dasminapant in combination with a variety of drugs and investigational agents in selected tumor cell lines
The MDM2 inhibitor alrizomadlin, the Bcl-2/Bcl-xL inhibitor pelcitoclax, and the IAPs inhibitor dasminapant were evaluated both individually and in combination with standard of care and investigational anticancer small molecules within a complex spheroid model of solid tumors. . Complex spheroids include a stromal component modeled by human endothelial cells (HUVEC) and fibroblasts modeled by human mesenchymal stem cells (MSCs). The concentration ranges selected for each drug and investigational agent were based upon clinically achievable concentrations if the clinical Cmax of the agent was known.
Compounds. The drugs and investigational agents: alrizomadlin (APG-115; NSC831270), pelcitoclax (APG-1252; NSC835773), dasminapant (APG-1387;NSC834197), TAK-243 (NSC785004), copanlisib (NSC809693), olaparib (NSC753686), talazoparib (NSC767125), cobimetinib (NSC 768068), eltanexor (KPT-8602, NSC 794443), abemaciclib (NSC 768073), sotorasib (NSC818433), adagrasib (NSC 831453), MRTX-1133 (NSC 836407), Iadademestat (ORY1001, NSC 806812), and RMC-4630 (NSC839698), were obtained from the NCI Developmental Therapeutics Program Chemical Repository. The FDA-approved anticancer drug set is available from the Developmental Therapeutics Program at https://dtp.cancer.gov/organization/dscb/obtaining/available plates.htm. […] The stock solutions were prepared in dimethyl sulfoxide (DMSO, Sigma-Aldrich, St. Louis, MO, cat. D2650) at 800-fold the tested concentration and stored at -70 degrees C prior to their use. All drugs and investigational agents were tested over a range starting from a high concentration at or near the clinical Cmax and decreasing in half-log increments. If the clinical Cmax for an agent had not been determined, the highest concentration tested was 10 microM.
The patient-derived cancer (PDC) cell lines include five colon adenocarcinomas: 186277-243-T-J2-PDC, 616215-338-R-J1-PDC, 439559-082-T-J2-PDC, 463943-066-T-J2-PDC, and 519858-162-T-J1-PDC; three pancreatic carcinomas: 323965-272-R-J2-PDC, 521955-158-R6-J3-PDC, and 521955-158-R2-J5-PDC; two uterine sarcomas: 327498-152-R-J2-PDC and 993429-296-R-J1-PDC; two rhabdomyosarcomas: 755483-174-R-J1-PDC and 772245-204-R-J1-PDC; two soft tissue sarcomas: 126254-015-R-J1-PDC and 494315-158-R-J1-PDC; two malignant fibrous histiocytomas: 317291-083-R-J1-PDC and 596521-263-R-J1-PDC; two breast carcinomas: 171881-019-R-J1-PDC and 885512-296-R-J2-PDC; and one ovarian carcinoma: 6556581-035-R-J-PDC were obtained from the NCI PDMR, (https://pdmr.cancer.gov). The established cell lines HSSY-2 synovial sarcoma (RRID:CVCL 8719), SYO-1 synovial sarcoma (RRID:CVCL_7146), MPNST malignant peripheral neural sheath tumor were obtained from the Sloan Kettering Institute. The following established cell lines were purchased from the American Type Culture Collection (ATCC, Manassas, VA), Sor the received from the NCI repository:, PANC-1 pancreatic carcinoma (CRL-1469, RRID:CVCL_0480), OVCAR-5 ovarian carcinoma (RRID:CVCL_1628), OVCAR-8 ovarian carcinoma (RRID:CVCL_1629), , MCF-7 breast carcinoma (CRL-12584, RRID:CVCL_0031), MDA-MB-231 breast carcinoma (CRL-12532, RRID:CVCL_0062), NCI-H1876 small cell lung carcinoma (CRL-5902, RRID:CVCL_1503), NCI-H510A small cell lung carcinoma (HTB-184, RRID:CVCL_1565), NCI-H1417 (CRL-5869, RRID:CVCL_1469), and NCI-H196 small cell lung carcinoma (CRL-5823, RRID:CVCL_1509). Dr. Peter Houghton (Greehey Children's Cancer Research Institute, University of Texas Health Science Center, San Antonio, TX) provided Rh-18 rhabdomyosarcoma (RRID:CVCL_1659). Pooled donor human umbilical vein endothelial cells (HUVEC, Lonza, cat. CC-2519) and human mesenchymal stem cells (hMSC, Lonza, cat. PT-2501) were purchased from Lonza (Walkersville, MD).
Cell Culture. […]
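Also: spheroids exposed to agents for seven days before readout.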
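For viability, T/C in this document: 100% = DMSO vehicle control viability.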

C=C(F)C(=O)N1CCN(c2nc(OCC3CCCN3C)nc3c2CCN(c2cccc4cccc(Cl)c24)C3)CC1CC#N (stereo not given) + Cc1c(S(C)(=O)=O)c(-c2cc(F)cc(N3CCN(c4ccc(NS(=O)(=O)c5ccc(NC(CCN6CCC(C(=O)OCCCP(=O)(O)O)CC6)CSc6ccccc6)c(S(=O)(=O)C(F)(F)F)c5)cc4)CC3)c2)c(-c2ccc(Cl)cc2)n1C(C)C
IC50 (second compound 0.1 µM): 5.43 µM
IC50 (second compound 0.316 µM): 4.9 µM
IC50 (second compound 1 µM): 2.95 µM
IC50 (second compound 3.16 µM): < 0.0316 µM
IC50 (second compound 10 µM): < 0.0316 µM
viability, T/C (second compound 0.1 µM, first compound 0.0316 µM): 93.2%
viability, T/C (second compound 0.1 µM, first compound 0.1 µM): 91.6%
viability, T/C (second compound 0.1 µM, first compound 0.316 µM): 87.8%
viability, T/C (second compound 0.1 µM, first compound 1 µM): 100%
viability, T/C (second compound 0.1 µM, first compound 3.16 µM): 96.1%
viability, T/C (second compound 0.1 µM, first compound 10 µM): 0.45%
viability, T/C (second compound 0.316 µM, first compound 0.0316 µM): 89.1%
viability, T/C (second compound 0.316 µM, first compound 0.1 µM): 89.3%
viability, T/C (second compound 0.316 µM, first compound 0.316 µM): 85.6%
viability, T/C (second compound 0.316 µM, first compound 1 µM): 88.5%
viability, T/C (second compound 0.316 µM, first compound 3.16 µM): 80.4%
viability, T/C (second compound 0.316 µM, first compound 10 µM): 0.42%
viability, T/C (second compound 1 µM, first compound 0.0316 µM): 65%
viability, T/C (second compound 1 µM, first compound 0.1 µM): 70.8%
viability, T/C (second compound 1 µM, first compound 0.316 µM): 67.9%
viability, T/C (second compound 1 µM, first compound 1 µM): 62.8%
viability, T/C (second compound 1 µM, first compound 3.16 µM): 49.4%
viability, T/C (second compound 1 µM, first compound 10 µM): 0.39%
viability, T/C (second compound 3.16 µM, first compound 0.0316 µM): 37.2%
viability, T/C (second compound 3.16 µM, first compound 0.1 µM): 36.6%
viability, T/C (second compound 3.16 µM, first compound 0.316 µM): 35.4%
viability, T/C (second compound 3.16 µM, first compound 1 µM): 32%
viability, T/C (second compound 3.16 µM, first compound 3.16 µM): 2.23%
viability, T/C (second compound 3.16 µM, first compound 10 µM): 0.3%
viability, T/C (second compound 10 µM, first compound 0.0316 µM): 26.4%
viability, T/C (second compound 10 µM, first compound 0.1 µM): 23.3%
viability, T/C (second compound 10 µM, first compound 0.316 µM): 20.3%
viability, T/C (second compound 10 µM, first compound 1 µM): 18.8%
viability, T/C (second compound 10 µM, first compound 3.16 µM): 1.56%
viability, T/C (second compound 10 µM, first compound 10 µM): 0.39%
